The record followed here is patent US6858230B1, “Process for producing medicinal composition of basic hydrophobic medicinal compound” (Shionogi & Co., Ltd., priority 1999, dated 2005).

Each structure is given as a SMILES string.

The nature of data set [1]: Dispersibility of active ingredient in acidic suspension with various kinds of acids. Format: physicochemical. As to conditions: at preparation. On the procedure:
50 g of PVP K30 was dissolved to 800 g of purified water. These aqueous solution were acidified by DL-Malic acid. The compound (I-1) was suspended in the acidic solution under stirring. The suspension was neutralized with 115 g of 13% NaOH aqueous solution to give a suspension. In place of malic acid in Example 3-1, citric acid was used. In place of malic acid in Example 3-1, phosphoric acid was used. No acid was used. Dispersibility of the compound (I-1) in an acidic suspension obtained in Example 3-1 to 3-4 including various kinds of acids was examined. Dispersibility was observed by the naked eyes at the time of preparation of an suspension.

Data set [2] can be described thus: Dispersibility of a basic compound in a suspension. Format: physicochemical. As to conditions: suspension with DL-malic acid, neutralized with NaOH (Examples 3-1, 4, 5). As to the method: 50 g of PVP K30 was dissolved to 800 g of purified water. These aqueous solution were acidified by DL-Malic acid. The compound (I-1) was suspended in the acidic solution under stirring. The suspension was neutralized with 115 g of 13% NaOH aqueous solution to give a suspension. In place of the compound (I-1) in Example 3-1, pindolol was used. In place of the compound (I-1) in Example 3-1, noscapine was used. Dispersibility of the compound (I-1) in an acidic suspension obtained in Example 3-1 to 3-4 including various kinds of acids was examined. Dispersibility was observed by the naked eyes at the time of preparation of an suspension. Dispersibility of active ingredient in the suspension obtained in Example 3-1, 4 and 5 was examined in accordance with Experiment 4.

For `CC(C)c1nc(COC(N)=O)n(Cc2ccncc2)c1Sc1cc(Cl)cc(Cl)c1` [Compound (I-1), 5-(3,5-dichlorophenyl)thio-4-isopropyl-1-(4-pyridyl)methyl-1H-imidazol-2-ylmethyl carbamate], the “Dispersibility of drug substance” value in data set [1] (suspension with citric acid (Example 3-2)) is reported as “Good”; in data set [1] (suspension with malic acid (Example 3-1)), “Good”; in data set [1] (suspension with no acid (Reference Example 3-4)), “Formation”; in data set [1] (suspension with phosphoric acid (Example 3-3)), “Good”; in data set [2], “Good”.

In the case of `COc1ccc2c(c1OC)C(=O)O[C@@H]2[C@H]1c2c(cc3c(c2OC)OCO3)CCN1C` [Noscapine, noscapine], the “Dispersibility of drug substance” value in data set [2] is given as “Good”.

Consider `CC(C)NCC(O)COc1cccc2[nH]ccc12` (stereo not shown) [Pindolol, pindolol], for which the “Dispersibility of drug substance” value in data set [2] was “Good”.
